Laboratory results taken from the supplement of paper PMC10627819.

Experiments:
B. subtilis 168 [1] = test: fitness (endpoint OD595 vs no drug) (fraction); higher = more growth
Procedure, shortened: (§1)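 With the first reading as background, OD595 was measured every 30 min for 14 h in 384-well plates kept at 37 °C and inoculated at OD595 0.01. TSB, LB Lennox or CY was the medium. Fitness is the optical density at the transition into stationary phase divided by the robust mean of no-drug control wells, with a cap of 1.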

B. subtilis 168 [2] = test: Bliss interaction score (quartile over a dose matrix) (fitness difference); higher = more antagonism (negative = synergy)
Procedure, shortened: (§2)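 Quartiles summarise the Bliss score over technical, biological and donor/recipient replicates, where the score is observed minus expected fitness under a product model. Expected fitness uses single-drug values inferred from combination data. Fitness is OD595 at entry into stationary phase over the plate's robust no-drug mean, capped at 1.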

S. aureus DSM 20231 = test: as above
Procedure, shortened: as §2

S. aureus Newman = test: as above
Procedure, shortened: as §2

S. pneumoniae D39V [3] = test: as above
Procedure, shortened: as §2

S. pneumoniae D39V [4] = test: fitness (endpoint OD595 vs no drug) (fraction); higher = more growth
Procedure, shortened: as §1
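Throughout, for Bliss interaction score (quartile over a dose matrix): first quartile when negative (synergy) and third quartile when positive (antagonism).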

O=C(O[C@@H]1Cc2c(O)cc(O)cc2O[C@@H]1c1cc(O)c(O)c(O)c1)c1cc(O)c(O)c(O)c1 [EGCG] + CO[C@@H]1[C@@H](OC(N)=O)[C@@H](O)[C@H](Oc2ccc3c(O)c(NC(=O)c4ccc(O)c(CC=C(C)C)c4)c(=O)oc3c2C)OC1(C)C [Novobiocin]
fitness, B. subtilis 168 [1]
Details	first compound 6.25 µg/mL	first compound 12.5 µg/mL	first compound 25 µg/mL
partner 0.0125 µg/mL	0.968	0.643	0.253
partner 0.025 µg/mL	0.93	0.568	0.234
partner 0.05 µg/mL	0.9	–	0.29

fitness, B. subtilis 168 [1], one replicate
Details	partner 0.1 µg/mL	partner 0.125 µg/mL	partner 0.2 µg/mL	partner 0.25 µg/mL	partner 0.5 µg/mL
first compound 6.25 µg/mL	0.949	0.92	0.896	0.875	0.563
first compound 12.5 µg/mL	0.756	0.69	0.759	0.522	0.194
first compound 25 µg/mL	0.546	0.213	0.541	0.223	0.207

Details	Bliss interaction score
B. subtilis 168 [2]	-0.0765
S. aureus DSM 20231	0.0574
S. aureus Newman	0.074
S. pneumoniae D39V [3]	-0.0624

O=C(O[C@@H]1Cc2c(O)cc(O)cc2O[C@@H]1c1cc(O)c(O)c(O)c1)c1cc(O)c(O)c(O)c1 [EGCG] + C[C@H]1COc2c(N3CCN(C)CC3)c(F)cc3c(=O)c(C(=O)O)cn1c23 [Levofloxacin]
fitness, B. subtilis 168 [1], one replicate
Details	first compound 6.25 µg/mL	first compound 12.5 µg/mL	first compound 25 µg/mL
partner 0.001 µg/mL	0.993	0.712	0.276
partner 0.0078 µg/mL	0.88	0.788	0.668

fitness
Details	first compound 6.25 µg/mL	first compound 12.5 µg/mL	first compound 25 µg/mL	first compound 50 µg/mL
B. subtilis 168 [1], partner 0.002 µg/mL	0.941	–	–	–
B. subtilis 168 [1], partner 0.0039 µg/mL	0.89	0.629	–	–
B. subtilis 168 [1], partner 0.0312 µg/mL	0.05	0.038	0.0206	–
B. subtilis 168 [1], partner 0.0625 µg/mL	0.0332	0.0286	0.0506	–
B. subtilis 168 [1], partner 0.125 µg/mL	0.058	0.0419	0.0505	–
S. pneumoniae D39V [4], partner 0.1725 µg/mL	–	0.876	0.815	0.868
S. pneumoniae D39V [4], partner 0.2 µg/mL	–	0.925	0.904	0.845
S. pneumoniae D39V [4], partner 0.345 µg/mL	–	0.804	0.733	0.897
S. pneumoniae D39V [4], partner 0.4 µg/mL	–	0.832	0.826	0.671
S. pneumoniae D39V [4], partner 0.69 µg/mL	–	–	0.777	–
S. pneumoniae D39V [4], partner 0.8 µg/mL	–	0.333	0.262	0.337

Details	Bliss interaction score
B. subtilis 168 [2]	-0.0322
S. aureus DSM 20231	-0.055
S. aureus Newman	-0.0447
S. pneumoniae D39V [3]	-0.092

CCC[C@@H]1C[C@@H](C(=O)N[C@@H]([C@H]2O[C@H](SC)[C@H](O)[C@@H](O)[C@H]2O)[C@@H](C)O)N(C)C1 [Lincomycin] + CCC(C)C1C(=O)NC(=C)C(=O)NC(C(=O)NC(CSCC(C(=O)N1)NC(=O)/C(=C/C)/NC(=O)C(C(C)CC)N)C(=O)NC2C(SCC(NC(=O)CNC(=O)C3CCCN3C2=O)C(=O)NC(CCCCN)C(=O)NC4C(SCC(NC(=O)CNC(=O)C(NC(=O)C(NC(=O)C(NC(=O)CNC4=O)C)CC(C)C)CCSC)C(=O)NC(CC(=O)N)C(=O)NC(CCSC)C(=O)NC(CCCCN)C(=O)NC5C(SCC6C(=O)NC(C(=O)NC(CSC(C(C(=O)N6)NC(=O)C(NC5=O)C)C)C(=O)NC(CO)C(=O)NC(C(C)CC)C(=O)NC(CC7=CN=CN7)C(=O)NC(C(C)C)C(=O)NC(=C)C(=O)NC(CCCCN)C(=O)O)CC8=CN=CN8)C)C)C)CC(C)C [Nisin]
main component drawn
Details	fitness
B. subtilis 168 [1], first compound 0.1 µg/mL, partner 0.5 µg/mL	0.888
B. subtilis 168 [1], first compound 0.1 µg/mL, partner 1 µg/mL	0.873
B. subtilis 168 [1], first compound 0.1 µg/mL, partner 2 µg/mL	0.542
B. subtilis 168 [1], first compound 0.2 µg/mL, partner 0.5 µg/mL	0.866
B. subtilis 168 [1], first compound 0.2 µg/mL, partner 1 µg/mL	0.839
B. subtilis 168 [1], first compound 0.2 µg/mL, partner 2 µg/mL	0.58
B. subtilis 168 [1], first compound 0.4 µg/mL, partner 0.5 µg/mL	0.903
B. subtilis 168 [1], first compound 0.4 µg/mL, partner 1 µg/mL	0.876
B. subtilis 168 [1], first compound 0.4 µg/mL, partner 2 µg/mL	0.643
S. pneumoniae D39V [4], first compound 0.2 µg/mL, partner 0.4275 µg/mL	0.751
S. pneumoniae D39V [4], first compound 0.2 µg/mL, partner 0.855 µg/mL	0.816
S. pneumoniae D39V [4], first compound 0.2 µg/mL, partner 1.71 µg/mL	0.0439
S. pneumoniae D39V [4], first compound 0.215 µg/mL, partner 3.2 µg/mL	0.0034
S. pneumoniae D39V [4], first compound 0.215 µg/mL, partner 6.4 µg/mL	0.0021
S. pneumoniae D39V [4], first compound 0.4 µg/mL, partner 0.4275 µg/mL	0.711
S. pneumoniae D39V [4], first compound 0.4 µg/mL, partner 0.855 µg/mL	0.197
S. pneumoniae D39V [4], first compound 0.4 µg/mL, partner 1.71 µg/mL	0.03
S. pneumoniae D39V [4], first compound 0.43 µg/mL, partner 3.2 µg/mL	0.0144
S. pneumoniae D39V [4], first compound 0.43 µg/mL, partner 6.4 µg/mL	0.0124
S. pneumoniae D39V [4], first compound 0.8 µg/mL, partner 0.4275 µg/mL	0.188
S. pneumoniae D39V [4], first compound 0.8 µg/mL, partner 0.855 µg/mL	0.124
S. pneumoniae D39V [4], first compound 0.8 µg/mL, partner 1.71 µg/mL	0.0586
S. pneumoniae D39V [4], first compound 0.86 µg/mL, partner 1.6 µg/mL	0.0707
S. pneumoniae D39V [4], first compound 0.86 µg/mL, partner 3.2 µg/mL	0.0001
S. pneumoniae D39V [4], first compound 0.86 µg/mL, partner 6.4 µg/mL	0.0011

fitness, B. subtilis 168 [1], one replicate, main component drawn
Details	partner 1.25 µg/mL	partner 1.6 µg/mL	partner 2.5 µg/mL	partner 3.2 µg/mL	partner 4 µg/mL	partner 5 µg/mL	partner 6.4 µg/mL	partner 8 µg/mL	partner 16 µg/mL
first compound 0.1 µg/mL	–	–	–	–	0.432	–	–	0.0171	0.0218
first compound 0.2 µg/mL	–	–	–	–	0.212	–	–	0.0182	0.0151
first compound 0.4 µg/mL	0.885	0.635	0.621	0.0271	0.202	0.0364	0.0378	0.0085	0.0174
first compound 0.8 µg/mL	0.858	0.572	0.573	0.0171	–	0.065	0.035	–	–
first compound 1.6 µg/mL	0.836	0.571	0.356	0.0205	–	0.0299	0.0358	–	–

main component drawn
Details	Bliss interaction score
B. subtilis 168 [2]	0.0535
S. aureus DSM 20231	0.117
S. aureus Newman	0.0755
S. pneumoniae D39V [3]	-0.0491

CCC[C@@H]1C[C@@H](C(=O)N[C@@H]([C@H]2O[C@H](SC)[C@H](O)[C@@H](O)[C@H]2O)[C@@H](C)O)N(C)C1 [Lincomycin] + CN(C)C(=O)C(CCN1CCC(O)(c2ccc(Cl)cc2)CC1)(c1ccccc1)c1ccccc1 [Loperamide]
Details	fitness
B. subtilis 168 [1], first compound 0.1 µg/mL, partner 100 µg/mL	0.0294
B. subtilis 168 [1], first compound 0.2 µg/mL, partner 100 µg/mL	0.0794
B. subtilis 168 [1], first compound 0.4 µg/mL, partner 100 µg/mL	0.0368
S. pneumoniae D39V [4], first compound 0.2 µg/mL, partner 17.14 µg/mL	0.799
S. pneumoniae D39V [4], first compound 0.2 µg/mL, partner 34.28 µg/mL	0.811
S. pneumoniae D39V [4], first compound 0.215 µg/mL, partner 20 µg/mL	0.902
S. pneumoniae D39V [4], first compound 0.215 µg/mL, partner 40 µg/mL	0.911
S. pneumoniae D39V [4], first compound 0.215 µg/mL, partner 80 µg/mL	0.897
S. pneumoniae D39V [4], first compound 0.4 µg/mL, partner 17.14 µg/mL	0.725
S. pneumoniae D39V [4], first compound 0.4 µg/mL, partner 34.28 µg/mL	0.685
S. pneumoniae D39V [4], first compound 0.43 µg/mL, partner 20 µg/mL	0.827
S. pneumoniae D39V [4], first compound 0.43 µg/mL, partner 40 µg/mL	0.83
S. pneumoniae D39V [4], first compound 0.43 µg/mL, partner 80 µg/mL	0.809
S. pneumoniae D39V [4], first compound 0.8 µg/mL, partner 17.14 µg/mL	0.535
S. pneumoniae D39V [4], first compound 0.8 µg/mL, partner 34.28 µg/mL	0.44
S. pneumoniae D39V [4], first compound 0.86 µg/mL, partner 20 µg/mL	0.599
S. pneumoniae D39V [4], first compound 0.86 µg/mL, partner 40 µg/mL	0.632
S. pneumoniae D39V [4], first compound 0.86 µg/mL, partner 80 µg/mL	0.525

S. pneumoniae D39V [4], partner 68.57 µg/mL, one replicate
Details	fitness
first compound 0.2 µg/mL	0.87
first compound 0.4 µg/mL	0.769
first compound 0.8 µg/mL	0.54

Details	Bliss interaction score
B. subtilis 168 [2]	-0.175
S. aureus DSM 20231	-0.058
S. aureus Newman	-0.0788
S. pneumoniae D39V [3]	0.187
